Measurements: patent US20210338647A1, “Combination of Acetylcholinesterase Inhibitor and 5-HT4 Receptor Agonist As Neuroprotective Agent In the Treatment of Neurodegenerative Diseases” (UNIVERSITE DE CAEN NORMANDIE, priority 2018, published 2021)
Marks after values point to notes of the source that are not given here.

Tests used:
[1] = test system: rat primary hippocampal neurons injured with Aβ 1-42; test: Neurite network of MAP-2 neurons in primary culture of hippocampal neurons injured with Aβ 1-42; assay type: cell-based; settings: for Neurite network / Neurite/neuron: Aβ1-42 20 μM/2.5 μM, percentage of control, Example 3
Experimental: Rat hippocampal neurons were cultured as described by Callizot et al. (2013) J. Neurosci. Res. 91706-716. Pregnant female rats of 17 days gestation (Rats Wistar; Janvier Labs France) were killed using a deep anesthesia with CO2 chamber followed by a cervical dislocation. Then, fetuses were removed from the uterus and immediately placed in ice-cold L15 Leibovitz medium with a 2% penicillin (10,000 U/ml) and streptomycin (10 mg/ml) solution (PS) and 1% bovine serum albumin (BSA). Hippocampal neurons were treated for 20 min at 37° C. with a trypsin-EDTA solution at a final concentration of 0.05% trypsin and 0.02% EDTA. The dissociation was stopped by adding Dulbecco's modified Eagle's medium (DMEM) with 4.5 g/l of glucose, containing DNAse I grade 11 (final concentration 0.5 mg/ml) and 10% fetal calf serum (FCS). Cells were mechanically dissociated by three forced passages through the tip of a 10-ml pipette and then centrifuged at 515×g for 10 min at 4° C. The supernatant was discarded, and the pellet was resuspended in a defined culture medium consisting of Neurobasal medium with a 2% solution of B27 supplement, 2 mmol/l of L-glutamine, 2% of PS solution, and 10 ng/ml of brain-derived neurotrophic factor (BDNF). Viable cells were counted in a Neubauer cytometer, using the trypan blue exclusion test. […] The medium was changed every 2 days.
The hippocampal neurons were exposed with Aβ solutions (see below) after 17 days of culture. The Aβ1-42 preparation was done following the procedure described by Callizot et al. (2013) J. Neurosci. Res. 91706-716. Briefly, Aβ1-42 peptide was dissolved in the defined culture medium mentioned above, at an initial concentration of 40 μM. This solution was gently agitated for 3 days at 37° C. in the dark and immediately used after being properly diluted in culture medium to the concentrations used (20 μM (plate 1) or 2.5 μM (plate 2) corresponding to 2 μM or 0.25 μM of oligomers (AβO) respectively).
Donecopride fumarate was solved in culture medium and preincubated 1 h before Aβ application. Aβ1-42 preparation was added to a final concentration of 20 or 2.5 μM (=2 μM or 0.25 μM of AβO, evaluated by automatic Western Blot) diluted in control medium in presence of Donecopride.
Donecopride fumarate (Donecopride) was tested on one culture in a 96 well plate (6 wells per conditions). The compound was preincubated one hour before […] application. The following conditions were assessed:
After permeabilization with 0.1% of saponin, cells were incubated for 2 h with:
a) chicken polyclonal antibody anti microtubule-associated-protein 2 (MAP-2), diluted at 1/1000 in PBS containing 1% fetal calf serum and 0.1% of saponin (this antibody allows the specific staining of neuronal cell bodies and neurites; and allow the study of neuronal cell death and neurite network).
For each condition, 30 pictures (representative of the whole well area) per well were taken using ImageXpress (Molecular Devices) at 20× magnification. All images were taken with the same acquisition parameters. Analyses were performed automatically by using Custom Module Editor (Molecular Devices).
Neurite network (in μm of MAP-2 positive neurons)
The neurite network is proportional to the number of neurons in the culture. The total neurite network was normalized by the number of neurons, in order to determine the average length of neurite per neurons.
Rat hippocampal neurons were cultured as described by Callizot et al. (2013) J. Neurosci. Res. 91:706-716. Briefly, pregnant female rats of 17 days gestation (Rats Wistar; Janvier Labs France) were killed using a deep anesthesia with CO2 chamber and a cervical dislocation. Then, fetuses were removed from the uterus and immediately placed in ice-cold L15 Leibovitz medium with a 2% penicillin (10,000 U/ml) and streptomycin (10 mg/ml) solution (PS) and 1% bovine serum albumin (BSA). The hippocampi were treated for 20 min at 37° C. with a trypsin-EDTA solution at a final concentration of 0.05% trypsin and 0.02% EDTA. […]

5XFAD mice [2] = test: Amyloid plaque number (thioflavin T staining) in brain sections of 5XFAD mice; assay type: in vivo, mouse; settings: 1 mg/kg twice a week for 3 months, versus controls
Experimental: (§1) 5XFAD mice received chronic treatments with drugs or vehicle according to 2 different protocols. In each experiment, drugs or vehicle solution were administered i.p. twice a week (1 mg/kg). In “Protocol 1”, mice (n=6-7 mice per group) were treated with compounds for two months, from 2 to 4 months of age. In “Protocol 2”, mice (n=7) were treated with compounds for three months, from 1 month to 4 months of age. At the end of each protocol, mice were anesthetized with a mixture of 100 mg/kg ketamine and 10 mg/kg xylazine in saline solution and perfused transcardially with PBS. Brains were quickly isolated on ice, the olfactory bulbs and cerebellum removed and the two hemispheres divided. One hemisphere was frozen on dry ice and stored at −80° C. for biochemical analysis, while the other was post-fixed in 4% PFA for immunohistochemistry (IHC).
Thirty-micrometer-thick sections were cut using a vibratome (Microm HM 650V, Thermo Scientific, Saint Herblain, France) and stored in cryoprotectant medium at −20° C. […]
Images were acquired with an Axiolmager Z1 microscope (Carl Zeiss S.A.S., Marly le Roi, France). […] GFAP expression was quantified using Image J software and results are expressed as area fractions. […]

5XFAD mice [3] = test: Astrogliosis (GFAP staining) in brain sections of 5XFAD mice; assay type: in vivo, mouse; settings: 1 mg/kg twice a week for 3 months, versus controls
Experimental: as §1
Thirty-micrometer-thick sections were cut using a vibratome (Microm HM 650V, Thermo Scientific, Saint Herblain, France) and stored in cryoprotectant medium at −20° C. For the labeling of amyloid plaques, free-floating tissue sections of frontal cortex, hippocampus and entorhinal cortex (coordinates from the bregma: frontal cortex=1.98 mm, hippocampus=−1.94 mm, entorhinal cortex=−3.08 mm) were extensively washed in PBS and then incubated in blocking solution (PBS; 3% BSA; 0.1% Triton X-100) for 1 h. Sections were stained with Hoechst dye (1:1000, Life Technologies, Saint Aubin, France) for 15 minutes to detect cell nuclei and then with freshly prepared thioflavin T solution (#T3516-5G, Sigma-Aldrich) (final concentration: 0.01 mg/ml in blocking buffer) for 15 minutes. After washing in 70% ethanol for 5 minutes, samples were mounted on poly-lysine slides with coverslips. For GFAP (glial fibrillary acidic protein) staining, free-floating brain sections were blocked as before and incubated with polyclonal rabbit anti-GFAP (1:1000, Z0334, Dako, Les Ullis, France) at 4° C. overnight. After thioflavin T staining and washing with 70% ethanol, the secondary Alexafluor 594 goat anti-rabbit antibody (1:1000, A11012, Life Technologies) was added for 2 h. PBS washes and mounting were performed as described before.
Images were acquired with an Axiolmager Z1 microscope (Carl Zeiss S.A.S., Marly le Roi, France). Analysis of thioflavin T staining was performed blindly and data are presented as the mean number of particles per mm^2 in two to three tissue sections from the same brain area/animal (Image J software). GFAP expression was quantified using Image J software and results are expressed as area fractions.
28 female 5XFAD mice (C57BL/6J genetic background) were used in this study. Mice received vehicle or compounds (1 mg/kg) i.p., twice a week for three months, from 1 to 4 months of age.

Compound: COc1cc2c(cc1OC)C(=O)C(CC1CCN(Cc3ccccc3)CC1)C2 (stereo not drawn) [Donepezil]
- Neurite network ([1]; donepezil 100 pM): 68%
- Neurite/neuron ([1]; donepezil 100 pM): 99%
- Neurite network ([1]; donepezil 1 nM): 75%*
- Neurite/neuron ([1]; donepezil 1 nM): 99%
- Neurite network ([1]; donepezil 10 nM): 79%*
- Neurite/neuron ([1]; donepezil 10 nM): 91%
- Neurite network ([1]; donepezil 50 nM): 85%*
- Neurite/neuron ([1]; donepezil 50 nM): 94%
- Neurite network ([1]; donepezil 100 nM): 85%*
- Neurite/neuron ([1]; donepezil 100 nM): 94%
- Neurite network ([1]; donepezil 500 nM): 87%*
- Neurite/neuron ([1]; donepezil 500 nM): 101%
- Neurite network ([1]; donepezil 1 μM): 90%*
- Neurite/neuron ([1]; donepezil 1 μM): 105%*
- Neurite network ([1]; donepezil 10 μM): 88%*
- Neurite/neuron ([1]; donepezil 10 μM): 103%*

Compound: CCCCN1CCC(CCC(=O)c2cc(Cl)c(N)cc2OC)CC1 [RS67333, 1-(4-amino-5-chloro-2-methoxy-phenyl)-3-(1-butyl-4-piperidinyl)-1-propanone]
- Lowest protective active dose: neurite network ([1]; Aβ 1-42 injured hippocampal neurons, Example 3 step 1): 10 nM
- Average length of neurites per neurons (FIG. 1C) ([1]; RS67333 alone, Aβ 1-42 injured hippocampal neurons, Example 3 step 1): protective effects
- Amyloid plaque number in hippocampus (5XFAD mice [2]): not significantly different compared to controls
- GFAP staining in frontal cortex (5XFAD mice [3]): not significantly different compared to controls
- GFAP staining in hippocampus (5XFAD mice [3]): not significantly different compared to controls
